Measurements published in PubChem BioAssay (NCI).
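Dose response: 5 concentrations. Exposure: 48 h. Format: 96-well plates. Endpoint: linear interpolation; highest concentration if not reached. At the TGI there is no net growth.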

Assays:
Assay in all cases: NCI anticancer screen, dose series, 48 h
SK-MEL-5 melanoma = system: SK-MEL-5 melanoma
SNB-75 CNS = system: SNB-75 CNS
K-562 leukemia = system: K-562 leukemia
HCC-2998 colon = system: HCC-2998 colon
CAKI-1 renal = system: CAKI-1 renal
UO-31 renal = system: UO-31 renal
UACC-257 melanoma = system: UACC-257 melanoma
CCRF-CEM leukemia = system: CCRF-CEM leukemia
U251 CNS = system: U251 CNS
NCI-H460 lung = system: NCI-H460 lung
OVCAR-5 ovarian = system: OVCAR-5 ovarian
HS 578T breast = system: HS 578T breast
PC-3 prostate = system: PC-3 prostate
MCF7 breast = system: MCF7 breast
MDA-N = system: MDA-N
BT-549 breast = system: BT-549 breast

SMILES	TGI (SK-MEL-5 melanoma)	TGI (SNB-75 CNS)	TGI (K-562 leukemia)	TGI (HCC-2998 colon)	TGI (CAKI-1 renal)	TGI (UO-31 renal)	TGI (UACC-257 melanoma)	TGI (CCRF-CEM leukemia)	TGI (U251 CNS)	TGI (NCI-H460 lung)	TGI (OVCAR-5 ovarian)	TGI (HS 578T breast)	TGI (PC-3 prostate)	TGI (MCF7 breast)	TGI (MDA-N)	TGI (BT-549 breast)
Cc1ccc(S(=O)(=O)NC(=O)C2S(=O)(=O)OCCOS2(=O)=O)cc1	> 100 µM	> 100 µM	> 100 µM	> 100 µM	> 100 µM	> 100 µM	> 100 µM	> 100 µM	–	–	–	–	–	–	–	–
[N-]=[N+]=CC(=O)C1(C(=O)C=[N+]=[N-])CC1	> 100 µM	> 100 µM	> 100 µM	> 100 µM	–	> 100 µM	> 100 µM	> 100 µM	> 100 µM	> 100 µM	> 100 µM	–	–	–	–	–
CCC(=O)OC1CCn2c1nc1c2C(=O)C(C)=C(NC(C)=O)C1=O (configuration not stated)	3.27 µM	10.3 µM	4.43 µM	5.13 µM	3.61 µM	4.73 µM	3.15 µM	3.89 µM	3.84 µM	14.1 µM	3.39 µM	–	–	–	–	–
CC(=O)O[C@@H]1[C@H](OC2CCCCC2(c2ccccc2)c2ccccc2)O[N+]([O-])=CC12CCCCC2 (some centres not stated)	28.2 µM	29.4 µM	> 100 µM	32.6 µM	27.5 µM	31.3 µM	32 µM	15.7 µM	30.7 µM	32.2 µM	29.4 µM	43.3 µM	22.6 µM	33.9 µM	36.7 µM	–
Nc1cn(C2OC(CC(c3ccccc3)(c3ccccc3)c3ccccc3)C(O)C2O)c(=O)[nH]c1=O (configuration not stated)	37.4 µM	> 100 µM	54.4 µM	64.4 µM	57.1 µM	> 100 µM	52.3 µM	63.1 µM	32.1 µM	39.5 µM	> 100 µM	–	–	–	–	–
CC(C)OP(=O)(OC(C)C)C(=NCCO)NNc1ccc([N+](=O)[O-])cc1	> 100 µM	> 100 µM	> 100 µM	> 100 µM	> 100 µM	> 100 µM	> 100 µM	> 100 µM	> 100 µM	> 100 µM	> 100 µM	–	–	–	–	–
CC1CC(=O)Nc2ccc(Cl)cc2N1C(=O)CN1CCC(CCCCN(C)C)CC1 (configuration not stated)	> 100 µM	–	> 100 µM	> 100 µM	> 100 µM	> 100 µM	> 100 µM	> 100 µM	> 100 µM	> 100 µM	> 100 µM	–	–	–	–	–
CCOC(=O)/C=C/n1c2ccccc2c(=O)c2cc(OC)ccc21	> 100 µM	> 100 µM	> 100 µM	> 100 µM	> 100 µM	> 100 µM	> 100 µM	> 100 µM	> 100 µM	> 100 µM	> 100 µM	–	–	–	–	–
COC(=O)C(C(=O)C(=O)Nc1ccc(C)cc1)c1nc2ccc([N+](=O)[O-])cc2[nH]c1=O (configuration not stated)	> 100 µM	> 100 µM	> 100 µM	> 100 µM	> 100 µM	> 100 µM	> 100 µM	> 100 µM	> 100 µM	> 100 µM	> 100 µM	–	–	–	–	–
O=C1c2ccccc2N=C(c2cc3c(cc2Cl)Sc2nccn2S3(=O)=O)OS(=O)(=O)N1c1ccccc1	–	46.1 µM	74.5 µM	36 µM	> 100 µM	91.3 µM	> 100 µM	41.7 µM	> 100 µM	> 100 µM	78.8 µM	> 100 µM	> 100 µM	81.5 µM	–	61.1 µM
NC(CCSCC(F)(F)F)C(=O)O (configuration not stated)	> 100 µM	> 100 µM	> 100 µM	> 100 µM	> 100 µM	> 100 µM	> 100 µM	> 100 µM	> 100 µM	> 100 µM	> 100 µM	–	–	–	–	–
Cc1cc(C)cc(Nc2nnc3n2S(=O)(=O)c2cc(C)c(Cl)cc2S3)c1	24.7 µM	> 100 µM	> 100 µM	16.6 µM	> 100 µM	> 100 µM	30.5 µM	> 100 µM	22.9 µM	24.8 µM	> 100 µM	26.9 µM	10.1 µM	36 µM	–	70.9 µM
CCCCn1c(-c2ccccc2)cs/c1=N\N=C1C=C(C(C)(C)C)C(=O)C(C(C)(C)C)=C1	–	–	> 100 µM	> 100 µM	> 100 µM	> 100 µM	> 100 µM	> 100 µM	> 100 µM	> 100 µM	> 100 µM	–	–	–	–	–
O=C(Nc1cccc(C(F)(F)F)c1)C(=O)C(C(=O)c1ccc(Cl)c(Cl)c1)C1OC(=O)c2ccccc21 (configuration not stated)	–	92.3 µM	> 100 µM	> 100 µM	> 100 µM	> 100 µM	> 100 µM	> 100 µM	> 100 µM	> 100 µM	> 100 µM	–	–	–	–	–
C=CCn1c(-c2cc(C(C)(C)C)c(O)c(C(C)(C)C)c2)cs/c1=N\C(P(=O)(O)O)P(=O)(O)O	–	> 100 µM	> 100 µM	> 100 µM	> 100 µM	> 100 µM	–	–	> 100 µM	> 100 µM	> 100 µM	> 100 µM	> 100 µM	> 100 µM	–	> 100 µM
CCOC(=O)COc1cc(-c2ccccc2F)nc2cc3c(cc12)OCO3	> 100 µM	> 100 µM	> 100 µM	> 100 µM	> 100 µM	–	> 100 µM	55.7 µM	> 100 µM	–	> 100 µM	–	> 100 µM	> 100 µM	> 100 µM	> 100 µM
O=C1NC(=O)C(C(=O)C(=O)Nc2cc(Cl)ccc2Cl)C(=O)N1	> 100 µM	> 100 µM	> 100 µM	> 100 µM	–	> 100 µM	> 100 µM	> 100 µM	> 100 µM	> 100 µM	> 100 µM	–	–	–	–	–
Cc1ccc2nc(NC(=O)C(=O)C(C(=O)c3ccc4ccccc4c3)C3OC(=O)c4ccccc43)sc2c1 (configuration not stated)	22.6 µM	–	–	23.7 µM	52.3 µM	28.6 µM	31.8 µM	–	15.5 µM	18 µM	23.9 µM	–	–	–	–	–

SMILES	TGI (SK-MEL-5 melanoma)	TGI (SNB-75 CNS)	TGI (K-562 leukemia)	TGI (HCC-2998 colon)	TGI (CAKI-1 renal)	TGI (UO-31 renal)	TGI (UACC-257 melanoma)	TGI (CCRF-CEM leukemia)	TGI (U251 CNS)	TGI (NCI-H460 lung)	TGI (OVCAR-5 ovarian)	TGI (HS 578T breast)	TGI (PC-3 prostate)	TGI (MCF7 breast)	TGI (MDA-N)	TGI (BT-549 breast)
CCN(CC)CC1CCCCN1CC(=O)N1c2cc(Cl)ccc2NC(=O)CC1C (configuration not stated)	> 100 µM	> 100 µM	> 100 µM	> 100 µM	> 100 µM	> 100 µM	> 100 µM	> 100 µM	> 100 µM	> 100 µM	> 100 µM	–	–	–	–	–
C/C(=N\Nc1ccccc1)c1sc(-c2nc(C)c(/C(C)=N/Nc3ccccc3)s2)nc1C	> 47.6 µM	> 77.1 µM	69.9 µM	19.9 µM	> 89.4 µM	> 60.7 µM	> 70.4 µM	> 100 µM	> 100 µM	> 100 µM	> 100 µM	–	–	–	–	–
C/C(=C1/N=C(c2cc([N+](=O)[O-])ccc2Cl)N(c2ccc(Br)cc2)C1=O)c1ccc(N(CCC#N)CCC#N)cc1C	> 100 µM	> 100 µM	29.3 µM	72.1 µM	> 100 µM	> 100 µM	> 100 µM	32.7 µM	–	> 100 µM	> 100 µM	–	–	–	–	–
CC(=O)NNc1nc(C)c(C(=O)NNC(=O)C(=O)Nc2ccc(Cl)c([N+](=O)[O-])c2)s1	> 100 µM	–	74.4 µM	> 100 µM	> 100 µM	> 100 µM	> 100 µM	56.8 µM	> 100 µM	> 100 µM	> 100 µM	–	–	–	–	–
N#C/C(=C\c1ccc(O)c(O)c1)c1c(C#N)c(N)nn1-c1ccccc1	34.4 µM	> 100 µM	55.9 µM	26.4 µM	9.05 µM	62 µM	> 100 µM	37.5 µM	20.6 µM	38.3 µM	> 100 µM	–	–	–	–	–
COC1(OC)CC2C(=O)N(Cc3ccccc3)C1C(S(=O)(=O)c1ccccc1)C2C(C)S(=O)(=O)c1ccccc1 (configuration not stated)	> 100 µM	–	> 100 µM	> 100 µM	> 100 µM	–	> 100 µM	> 100 µM	> 100 µM	> 100 µM	> 100 µM	–	–	–	–	–
C[N+]1=C(c2cccnc2/C=N/O)OCC1(C)C	> 100 µM	> 100 µM	> 100 µM	> 100 µM	> 100 µM	> 100 µM	> 100 µM	> 100 µM	> 100 µM	> 100 µM	> 100 µM	–	–	–	–	–
CC1=C(C(=O)NNC(=O)Cc2ccccc2)CC(C(=O)NNC(=O)Cc2ccccc2)=C(C)N1	> 100 µM	> 100 µM	–	> 100 µM	> 100 µM	> 100 µM	> 100 µM	–	> 100 µM	> 100 µM	> 100 µM	–	–	> 100 µM	> 100 µM	> 100 µM
CCOC(=O)NN(C(=O)OCC)c1ccc(N=Nc2ccc(OC)cc2)n1C	32.6 µM	46 µM	71.4 µM	83.6 µM	–	71 µM	56.1 µM	–	> 100 µM	–	> 100 µM	> 100 µM	53.4 µM	31.8 µM	40.7 µM	–
Oc1ccc(-c2c3ccccc3c(-c3ccc(O)cc3)c3ccccc23)cc1	> 100 µM	> 100 µM	> 100 µM	> 100 µM	> 100 µM	> 100 µM	> 100 µM	> 100 µM	> 100 µM	> 100 µM	> 100 µM	–	–	–	–	–
Cn1c(N/N=C/c2ccccc2)nc(-c2ccc3c(c2)OCO3)c(C#N)c1=O	> 100 µM	> 100 µM	> 100 µM	–	> 100 µM	> 100 µM	> 100 µM	> 100 µM	> 100 µM	> 100 µM	> 100 µM	> 100 µM	> 100 µM	> 100 µM	> 100 µM	–
COc1ccccc1-n1cnc2c1NC(C)(C)N=C2C(N)=O	> 100 µM	> 100 µM	> 100 µM	> 100 µM	> 100 µM	–	> 100 µM	> 100 µM	> 100 µM	> 100 µM	> 100 µM	> 100 µM	> 100 µM	> 100 µM	> 100 µM	–
O=Cc1c2c(cc3c1CC1(C3)Cc3cc4c(c(C=O)c3C1)CCCC4)CCCC2	> 31.6 µM	> 100 µM	54.1 µM	> 31.6 µM	> 100 µM	–	> 31.6 µM	30.2 µM	> 31.6 µM	> 100 µM	> 31.6 µM	> 31.6 µM	> 31.6 µM	> 31.6 µM	> 31.6 µM	–
Cc1nc2cn3c(c2c(=O)[nH]1)CCCCC3	> 100 µM	> 100 µM	> 100 µM	> 100 µM	> 100 µM	> 100 µM	> 100 µM	> 100 µM	> 100 µM	> 100 µM	–	> 100 µM	> 100 µM	> 100 µM	–	> 100 µM
O=C1CC(c2ccc(Cl)cc2)C2(C(=O)NC(=S)NC2=O)C(c2ccc(Cl)cc2)C1 (configuration not stated)	33.1 µM	30.2 µM	74.1 µM	43.3 µM	74.6 µM	48.9 µM	37.6 µM	75.4 µM	79.7 µM	30.5 µM	47.7 µM	99.4 µM	55.1 µM	32.1 µM	34.1 µM	–
O=[N+]([O-])c1ccc(CSc2nn(Cc3ccc([N+](=O)[O-])cc3)cc3ncnc2-3)cc1	> 100 µM	> 100 µM	> 100 µM	> 100 µM	> 100 µM	61.2 µM	> 100 µM	–	–	–	> 100 µM	–	> 100 µM	> 100 µM	> 100 µM	84.8 µM
O=C(Nc1ccccc1[N+](=O)[O-])/C(=N/Nc1cccc(Cl)c1)c1c(O)c2ccccc2oc1=O	> 100 µM	> 100 µM	> 100 µM	> 100 µM	> 100 µM	> 100 µM	> 100 µM	87.5 µM	–	> 100 µM	> 100 µM	–	–	–	–	–
Cc1ccc2nc(N)[nH]c(=O)c2c1Sc1ccncc1	> 100 µM	> 100 µM	> 31.6 µM	> 100 µM	> 100 µM	> 100 µM	> 100 µM	> 100 µM	> 100 µM	> 100 µM	> 100 µM	–	–	–	–	–
